# From PubChem BioAssay (NCI)
#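 Assay format: 96-well plates, 48-hour exposure. The concentration for full growth arrest is given as TGI.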
# How the values were obtained:
# Experiment in all cases: inhibition of tumour cell growth, NCI panel, 48 h
# SNB-78 CNS = tested on: SNB-78 CNS
# DMS 273 small cell lung = tested on: DMS 273 small cell lung
# DMS 114 small cell lung = tested on: DMS 114 small cell lung
# RXF-631 renal = tested on: RXF-631 renal
# MDA-N = tested on: MDA-N
# BT-549 breast = tested on: BT-549 breast
# PC-3 prostate = tested on: PC-3 prostate
# T-47D breast = tested on: T-47D breast
SMILES,TGI (SNB-78 CNS) [µM],TGI (DMS 273 small cell lung) [µM],TGI (DMS 114 small cell lung) [µM],TGI (RXF-631 renal) [µM],TGI (MDA-N) [µM],TGI (BT-549 breast) [µM],TGI (PC-3 prostate) [µM],TGI (T-47D breast) [µM]
[O-]c1c2c(nn1-c1ccc(Cl)cc1)c1ccccc1c[n+]2Cc1ccccc1,> 100,> 100,> 100,–,–,–,–,–
C/C(=N\NC(=O)CC(=O)N(C(=O)c1ccc(Cl)cc1)c1ccc(C)cc1)c1ccccc1O,> 100,> 100,> 100,> 100,–,–,–,–
CCOC(=O)CNc1nnnn1C1OC(CO)C(O)C1O (stereo unspecified),> 100,> 100,> 100,–,–,–,–,–
Cn1cnc([N+](=O)[O-])c1Sc1nccc(=O)[nH]1,> 100,> 100,> 100,> 100,–,–,–,–
Cc1ccc2nc(NC(=O)/C(=N\NC(=S)NN)C3C(=O)NC(=S)NC3=O)sc2c1,> 100,> 100,–,> 100,–,–,–,–
O=C1C=CC2(C=C1)C[C@H](NC(=O)OCc1ccccc1)C(=O)O2,67.2,35,47.2,40.8,28.9,32.7,29.9,49.9
CCOC(=O)C(C(O)c1ccc([N+](=O)[O-])cc1)P(=O)(OCC)OCC (stereo unspecified),–,> 100,–,> 100,–,–,–,–
CCN(CC)CCNc1ccc2nc(C)n3c4ccc(O)cc4c(=O)c1c23,–,3.15,10.4,7.51,–,–,–,–
CC(=O)O[C@H]1CC2C=CC3C(CCC31)O2 (stereo partly specified),> 100,> 100,> 100,–,–,–,–,–
Cc1ccc(NC(=O)OCC(COc2ccc(Cl)cc2Cl)OC(=O)Nc2ccc(C)cc2)cc1 (stereo unspecified),> 100,> 100,> 100,–,–,–,–,–
C=C(CCCO)[C@@H]1CC[C@@](C)(O)[C@H]1C,> 100,> 100,> 100,> 100,–,–,–,–
CCOC(=O)C(=O)Nc1ccccc1C(C)C,–,> 100,> 100,> 100,–,–,–,–
CC1C2CC=CC(=O)[C@@]2(C)CCC12OCCO2 (stereo partly specified),> 100,> 100,> 100,–,–,–,–,–
